In the NIST ThermoML archive (doi:10.1016/j.tca.2006.04.016):

Assay: xn = mol fraction of the nth substance listed
Settings: 101 kPa, Liquid, Vibrating tube method

CN(C)CCCN [N,N-dimethyl-1,3-propanediamine] + O
mass density [kg/m3]
Settings	318.15 K	323.15 K	328.15 K	333.15 K	338.15 K	343.15 K	348.15 K	353.15 K
x2 = 0	–	790.41	785.91	781.39	776.85	772.29	767.7	763.1
x2 = 0.0403	–	793.5	789	784.47	779.92	775.35	770.76	766.14
x2 = 0.0811	–	796.65	792.14	787.61	783.06	778.48	773.88	769.25
x2 = 0.1198	–	799.82	795.31	790.78	786.22	781.64	777.03	772.39
x2 = 0.16	–	803.3	798.79	794.25	789.69	785.1	780.49	775.84
x2 = 0.1996	–	806.9	802.39	797.86	793.3	788.71	784.09	779.43
x2 = 0.2498	–	811.82	807.31	802.78	798.22	793.62	788.99	784.32
x2 = 0.2998	–	817.12	812.62	808.09	803.53	798.93	794.3	789.63
x2 = 0.3499	–	822.81	818.31	813.78	809.21	804.61	799.97	795.29
x2 = 0.3997	–	829.08	824.59	820.06	815.49	810.89	806.24	801.55
x2 = 0.4501	–	836.03	831.54	827.01	822.44	817.83	813.18	808.48
x2 = 0.4998	–	843.68	839.19	834.65	830.08	825.45	820.79	816.07
x2 = 0.5501	–	852.33	847.84	843.3	838.71	834.08	829.41	824.69
x2 = 0.5999	866.35	861.89	857.39	852.84	848.24	843.6	838.92	834.17
x2 = 0.6498	877.08	872.61	868.1	863.55	858.94	854.29	849.59	844.83
x2 = 0.7	889.3	884.83	880.31	875.74	871.13	866.47	861.76	857
x2 = 0.7499	902.82	898.36	893.85	889.3	884.69	880.03	875.32	870.56
x2 = 0.8	917.71	913.29	908.82	904.3	899.72	895.11	890.44	885.71
x2 = 0.84	930.55	926.21	921.82	917.39	912.9	908.37	903.78	899.14
x2 = 0.8799	943.86	939.69	935.48	931.22	926.91	922.56	918.14	913.67
x2 = 0.9	950.58	946.58	942.52	938.42	934.27	930.05	925.79	921.45
x2 = 0.92	957.27	953.52	949.71	945.84	941.89	937.89	933.81	929.67
x2 = 0.94	963.99	960.6	957.12	953.56	949.91	946.17	942.35	938.45
x2 = 0.9597	970.89	967.94	964.87	961.68	958.38	954.98	951.46	947.86
x2 = 0.975	976.98	974.39	971.65	968.78	965.78	962.66	959.41	956.07
x2 = 0.99	984.22	981.91	979.45	976.83	974.07	971.18	968.15	965.01
